Measured values as given in patent US10053432B2, “Substituted [1,2,4]triazole and imidazole compounds” (BASF SE, priority 2013, dated 2018).

How the values were obtained:
Type in all cases: cell-based
Settings in all cases: at 31 ppm; absorption at 405 nm 7 days after inoculation; relative to active compound-free control (100%)
[1] = tested on: Pyricularia oryzae
[2] = tested on: Septoria tritici; test: Activity against leaf blotch on wheat caused by Septoria tritici (Septtr), microtiterplate test
[3] = tested on: Botrytis cinerea; test: Activity against the grey mold Botrytis cinerea in the microtiterplate test (Botrci)

Measured: growth (relative growth in % of the pathogen)

OC(Cn1cncn1)(c1ccc(C#CC2CC2)cc1Cl)C1CC1 (stereo not drawn) [Compound I-1, 1-[2-chloro-4-(2-cyclopropylethynyl)phenyl]-1-cyclopropyl-2-(1,2,4-triazol-1-yl)ethanol]
0%: all assays above
